Results from patent publication US8114381B2, “Radiolabeled compounds and compositions, their precursors and methods for their production” (The University of British Columbia, priority 2004, dated 2012).

Legend:
Format in all cases: physicochemical
[1] = Spectroscopic study of protecting group hydrolysis rate; settings: 200 mM Acetic acid at pH 3.5, 2 mM boron compound, 20 mM KHF2
Procedure: Prior to ^18F-labeling of the final DNA compound or other boron-based fluoride acceptors, dilute labeling conditions were developed for 4-(4,4,5,5-Tetramethyl-1,3,2-dioxaborolan-2-yl) aniline with cold ^19F and the expectation that these labeling conditions can be extrapolated onto ^18F studies. The general conditions established are as follows: 200 mM Acetic acid at pH 3.5, with 2 mM boron compound, and 20 mM KHF2.

[2] = Kinetics of fluorination of boron compound with KHF2; settings: 100 mM Acetic acid at pH 3.5
Text: Prior to ^18F-labeling of the final DNA compound or other boron-based fluoride acceptors, dilute labeling conditions were developed for 4-(4,4,5,5-Tetramethyl-1,3,2-dioxaborolan-2-yl) aniline with cold ^19F and the expectation that these labeling conditions can be extrapolated onto ^18F studies. […]

[3] = 19F NMR stability of B-F bond with 20 mM boric acid chase or in presence of boric acid; settings: 20 mM boric acid chase (chase at 1 h, NMR at 2 h) or fluorination in presence of 20 mM boric acid
Procedure: Fluorination after a 20 mM boric acid chase (chase at 1 h, NMR taken at 2 h): ^19F NMR (300 MHz, D2O, TFA ref) δ −50.23 (fluorine-boric acid species #1), δ−53.89 (KHF2), δ −62.3 (fluorine-boric acid species #2), δ −66.30 (s, φBF3). Fluorination in the presence of boric acid: ^19F NMR (300 MHz, D2O, TFA ref) δ −50.02 (fluorine-boric acid species #1), δ −52.47 (KHF2), δ −62.0 (fluorine-boric acid species #2), δ −65.65 (s, φBF3).

Row | SMILES | protecting group hydrolysis rate [1] [min⁻¹] | rate of fluorination [2] [min⁻¹] | stability of B—F bond (persistence of 19F NMR peak near δ −66) [3]
1 | CC1(C)OB(c2ccc(N)cc2)OC1(C)C [4-(4,4,5,5-Tetramethyl-1,3,2-dioxaborolan-2-yl) aniline] | 0.66 ± 0.04 | 2.8 ± 0.3 | –
2 | [NH3+]c1ccc([B-](F)(F)F)cc1 [φBF3, 4-Ammoniumphenyl Trifluoroborate] | – | – | stable
